# Patent US10668061B2, “Mouse with D4R iRNA in the intercalating cell mass of the amygdala” (POSTECH ACADEMY-INDUSTRY FOUNDATION, priority 2016, dated 2020)
# What was measured:
# [1] = tested on: dorsal ITC neurons; assay: STDP in dorsal ITC neurons of naive slices with or without GABAA receptor blockade; type: cell-based, mice; details: +4- and +6-ms interval delays; not in absence of picrotoxin
# Method: To compare mPSCs without or after STDP, KCl-based and K-gluconate-based internal solutions were used for recording mIPSCs and mEPSCs, respectively. K-gluconate based solution was also used to record EPSCs and IPSCs evoked by interleaved stimulation. Series resistance (10-30 MΩ) was monitored throughout all experiments. mEPSCs were recorded at −70 mV holding potential in the presence of 1 μM tetrodotoxin (TTX) and 100 μM picrotoxin (Tocris, UK) while mIPSCs were measured at −70 mV in the presence of 1 μM TTX, 25 μM NBQX, and 50 μM 2-amino-5-phosphonovaleric acid (APV, Tocris). Miniature PSCs were analyzed with MiniAnalysis (Synaptosoft, Fort Lee, N.J.) or Clampfit 10.1 software (Molecular Devices). For PSC recordings with interleaved stimulation, the holding potential was briefly (˜40 ms) changed from −70 mV to +10 mV to reach the reversal potential of EPSC for isolation of putative IPSCs. For STDP experiments, stimulus intensity was adjusted to elicit EPSPs displaying 25%-30% of the maximum amplitudes. After obtaining stable baseline recording, 80 presynaptic stimuli were delivered at 2 Hz via metal stimulating electrode placed in LA while paired with action potentials induced by injection of depolarizing current to postsynaptic neurons. Quantal contents were estimated by obtaining the inverse square of the coefficient of variation (1/CV^2). […]. […]
# [2] = tested on: dorsal ITC neurons; assay: STDP-induced LTD in dorsal ITC in amygdala slices after weak fear conditioning; type: cell-based, mice; details: for induction of LTD after weak fear conditioning: wild-type mice, slices after weak fear conditioning, drug applied to slices
# Method: (§1) Fear conditioning trainings were conducted in context A within sound-attenuating conditions (Panlab, Spain). Tone CS (conditioned stimulus) was delivered with a speaker while electric foot shock US (unconditioned stimulus) was applied through a floor grid attached to a shock generator (Panlab). The chambers were also equipped with infrared webcams connected to a personal computer to store animal behavior. Mice were placed in the context A for 2 minutes of acclimation and were then presented with auditory tone (CS: 3 kHz, 80 dB for 30 sec) that were co-terminated with electric foot shocks (US: 0.4 or 0.8 mA for 0.5 sec). Total 8 CS-US pairs were presented in pseudorandom intertrial intervals (varied from 60 to 120 sec). 24 hours after fear conditioning, mice were placed in context B to assess the recall of fear memory by being re-exposed to CS, but without US for 2 minutes.
# To compare mPSCs without or after STDP, KCl-based and K-gluconate-based internal solutions were used for recording mIPSCs and mEPSCs, respectively. K-gluconate based solution was also used to record EPSCs and IPSCs evoked by interleaved stimulation. Series resistance (10-30 MΩ) was monitored throughout all experiments. mEPSCs were recorded at −70 mV holding potential in the presence of 1 μM tetrodotoxin (TTX) and 100 μM picrotoxin (Tocris, UK) while mIPSCs were measured at −70 mV in the presence of 1 μM TTX, 25 μM NBQX, and 50 μM 2-amino-5-phosphonovaleric acid (APV, Tocris). Miniature PSCs were analyzed with MiniAnalysis (Synaptosoft, Fort Lee, N.J.) or Clampfit 10.1 software (Molecular Devices). For PSC recordings with interleaved stimulation, the holding potential was briefly (˜40 ms) changed from −70 mV to +10 mV to reach the reversal potential of EPSC for isolation of putative IPSCs. For STDP experiments, stimulus intensity was adjusted to elicit EPSPs displaying 25%-30% of the maximum amplitudes. […]
# [3] = tested on: dorsal ITC neurons; assay: STDP-induced DA-dependent LTD (DA-LTD) in dorsal ITC neurons, amygdala slice whole-cell recordings; type: cell-based, mice; details: for effect on DA-LTD: STDP protocol in presence of DA, antagonists in optimal concentrations selective for each receptor, naive mice; for induction of LTD at the dorsal ITC by receptor agonist: STDP protocol, agonist in place of DA
# [4] = tested on: dorsal ITC neurons; assay: Disynaptic IPSP input-output curves in dorsal ITC of CORT-treated mice; type: cell-based; details: vehicle-treated significantly increased
# Method: To induce PTSD-like memory impairment, corticosterone (CORT, 5 mg/kg) or vehicle (saline, 0.9% NaCl) was intraperitoneally (i.p.) injected immediately after fear conditioning as previously described. The cue-conditioning group underwent weak fear conditioning with the previously-described CS-US pairing paradigm in context A and was tested for fear recall toward the cue in context B at the next day.
# To obtain mechanistic insights into the LTD impairment, we constructed the input-output curves of evoked disynaptic IPSPs. […] Thus, the LTD deficit in CORT-treated mice appears to result from the impaired augmentation of inhibitory inputs to the dorsal ITC neurons.
# [5] = tested on: mice that underwent weak fear conditioning; assay: Corticosterone-induced PTSD-like memory impairment after weak fear conditioning (freezing); type: in vivo; details: CORT 5 mg/kg i.p.
# Method: as §1, with “minutes. […]” for “minutes.”
# To assess contextual fear memory from cue conditioned animals, the mice were placed again in context A 2 hours after termination of the first recall test and then duration of freezing was measured for 2 minutes without presentation of the auditory cue. The mice were placed in context B 2 hours after termination of the first recall test and the freezing time during presentation of the auditory cue was measured for 2 minutes.
# [6] = tested on: dorsal ITC neurons
# [7] = tested on: ITC neurons; assay: Paired recording of unitary IPSCs (uIPSCs) between synaptically coupled ITC neurons
# [8] = molecular target: T1, D4R at the dorsal ITC (Mus musculus, UniProt P51436); assay: Weak fear conditioning after bilateral drug infusion into the dorsal ITC (freezing); type: in vivo, mice; details: 500 nM, 0.5 μl bilaterally into dorsal ITC 20 minutes before fear conditioning; vs vehicle
# T1 construct: endogenous in cells; host or cells: neurons of the mouse brain in vivo (dorsal ITC of the amygdala); mice from Jackson Laboratory
# T1 sequence (P51436 1-387): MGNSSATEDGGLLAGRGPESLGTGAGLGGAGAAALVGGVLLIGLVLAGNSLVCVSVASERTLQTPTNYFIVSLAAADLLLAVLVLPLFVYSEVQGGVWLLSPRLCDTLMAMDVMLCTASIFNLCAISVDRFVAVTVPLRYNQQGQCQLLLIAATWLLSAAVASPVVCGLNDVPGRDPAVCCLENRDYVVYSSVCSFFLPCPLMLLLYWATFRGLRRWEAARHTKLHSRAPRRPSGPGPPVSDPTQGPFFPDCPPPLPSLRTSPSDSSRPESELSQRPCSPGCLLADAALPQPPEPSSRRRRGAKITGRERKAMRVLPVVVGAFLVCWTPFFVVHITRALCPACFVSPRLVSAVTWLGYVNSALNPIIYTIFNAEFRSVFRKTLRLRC
# Method: Guide cannulae were implanted bilaterally (26 gauge, Plastics One, Roanoke, Va.) aimed into the dorsal ITC areas in the coordinates, AP−1.4 mm, ML±3.2 mm, DV−4.2 mm from the bregma, and were fixed in the skull with dental cement. The cannulae remained capped with internal dummy cannulae (33 gauges, Plastics One) after surgery. Animals were individually housed and allowed to recover at least for 1 week after surgery. The mice bilaterally received 0.5 μl of either L-745870 or vehicle through the injection cannula (33 gauge, Plastics One) connected to a 10-μl Hamilton syringe for 5 minutes at a rate of 0.1 μl/min using microinfusion pump (Harvard Apparatus, Holliston, Mass.) 20 minutes before fear conditioning. L-745870 was dissolved to 500 nM in 0.9% saline just before the infusion. Mice were kept with injector cannulae for additional 5 minutes after the end of infusion and then were subjected to fear conditioning. […] The subject mice were transcardially perfused right after the last behavioral tests and analyzed for the injection loci. […]
# If DA-LTD at the dorsal ITC is a synaptic mechanism that regulates neural circuits conveying fear memory, manipulation of D4R activity or synaptic plasticity at the dorsal ITC should affect fear memory. […] We injected either vehicle or L-745870 bilaterally into the dorsal ITC areas and then assessed acquisition and expression of fear memory (FIG. 5A).
molecule,measurement,setting,value
picrotoxin,synaptic plasticity by STDP in presence of GABAA receptor antagonist,[1],LTP
CC#C[C@]1(O)CC[C@H]2[C@@H]3CCC4=CC(=O)CCC4=C3[C@@H](c3ccc(N(C)C)cc3)C[C@@]21C [RU38486],induction of LTD after weak fear conditioning,[2],blocked
same,effect on DA-LTD,[3],blocked
"C[C@]12C[C@H](O)[C@H]3[C@@H](CCC4=CC(=O)CC[C@@]43C)[C@@H]1CC[C@@H]2C(=O)CO [CORT, corticosterone]",disynaptic IPSPs after weak fear conditioning,[4],not altered
same,induction of LTD in dorsal ITC of CORT-treated mice,"[2]; CORT 5 mg/kg i.p. after conditioning, regardless of fear conditioning",LTD could not be triggered
same,freezing to the context after cue conditioning only,[5],increased freezing levels
same,freezing to the conditioned cue 24 hr after weak fear conditioning,"[5]; vs vehicle-injected, cue or context pairing",higher freezing levels
"NCCc1ccc(O)c(O)c1 [DA, Dopamine]",changes in resting membrane potentials (RMPs) and excitability,"[6]; DA 30 mM, before and after application",negligible changes
same,synaptic transmission on bath application alone,"[6]; bath application of DA alone, no STDP",did not alter synaptic transmission
same,induction of LTD by the STDP protocol in the presence of DA,[3]; DA 30 mM,LTD was readily induced
COc1ccccc1N1CCN(CCCCNC(=O)c2ccc(-c3ccc(C(C)=O)cc3)cc2)CC1 [GR-103691],effect on DA-LTD,[3],did not affect DA-LTD
CCCN1CCO[C@@H]2c3cc(O)ccc3OC[C@H]21 [PD-128907],induction of LTD at the dorsal ITC by receptor agonist,[3],did not
Oc1cc2c(cc1O)C(c1ccccc1)CNCC2 (stereo not shown) [SKF-38393],induction of LTD at the dorsal ITC by receptor agonist,[3],did not
"Cc1cccc(C(=O)NCN2CCN(c3ccccc3C#N)CC2)c1 [PD-168077, N-([4-(2-cyanophenyl)piperazine-1-yl]methyl)-3-methylbenzamide]",amplitude of uIPSCs when LTD was induced,[7]; current injection to postsynaptic ITC neurons while stimulating LA in presence of PD-168077,markedly increased
same,induction of LTD at the dorsal ITC by receptor agonist,[3],allowed for the induction of LTD
OC1(c2ccc(Cl)cc2)CCN(Cc2c[nH]c3ccccc23)CC1 [L-741626],effect on DA-LTD,[3],did not affect DA-LTD
Nc1nc2c(ncn2[C@@H]2O[C@H](COP(=O)(O)OP(O)(O)=S)[C@@H](O)[C@H]2O)c(=O)[nH]1 [GDPβS],"LTD-induced increment of uIPSC amplitude, infused into postsynaptic ITC neurons","[7]; GDPβS 0.5 mM in internal solution, postsynaptic neuron",not
same,"LTD-induced increment of uIPSC amplitude, infused into presynaptic ITC neurons","[7]; GDPβS 0.5 mM in internal solution, presynaptic neuron",blocked
Clc1ccc(N2CCN(Cc3c[nH]c4ncccc34)CC2)cc1 [L-745870],induction of LTD after weak fear conditioning,[2],interfered with the induction of LTD
same,freezing at 24 hr after weak fear conditioning,[8],significantly higher levels of freezing
same,freezing levels during acquisition,[8],comparable freezing levels
same,effect on DA-LTD,[3],abolished DA-LTD
